The structures appear in SMILES notation. Active and inactive are the calls of the source.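 How the source made its calls: active means IC50 under 35 µM against the melanocortin-4 receptor MC4R counterscreen signal; inactive means IC50 above 35 µM.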

This experiment concerns HEK293 transfected MC4R, CRE-luciferase, beta-gal normalized. The experiment in a line: MC4R antagonists in CRE-luciferase reporter cells, dose response, counter-screen for LGR2 antagonist project, cell-based, HEK293, beta-gal normalized, luminescence, dry powder (AID 743502).
The term IC50 denotes the concentration at which inhibition is half-maximal. For the molecule `C[C@H](CO)N1C[C@H](C)[C@H](CN(C)C(=O)Nc2ccccc2F)OCCCC[C@H](C)Oc2ccc(NC(=O)C3CCCCC3)cc2C1=O`, the IC50 was > 35 µM (inactive). `C[C@H](CO)N1C[C@H](C)[C@H](CN(C)C(=O)Nc2cccc3ccccc23)OCCCC[C@H](C)Oc2ccc(NC(=O)C3CCCCC3)cc2C1=O`: the IC50 is > 35 µM (inactive). For the molecule `C[C@H](CO)N1C[C@H](C)[C@H](CN(C)C(=O)Nc2ccc(F)cc2)OCCCC[C@H](C)Oc2ccc(NC(=O)C3CCCC3)cc2C1=O`, the IC50 is > 35 µM (inactive).

Take `C[C@@H]1CN([C@@H](C)CO)C(=O)c2cc(NC(=O)C3CCCCC3)ccc2O[C@@H](C)CCCCO[C@H]1CN(C)C(=O)Nc1cccc2ccccc12`: the IC50 is > 35 µM (inactive). As for `C[C@H](CO)N1C[C@H](C)[C@H](CN(C)C(=O)Nc2ccc(Cl)cc2)OCCCC[C@H](C)Oc2ccc(NC(=O)C3CCCCC3)cc2C1=O`, the IC50 was > 35 µM (inactive). In the case of `C[C@H](CO)N1C[C@H](C)[C@H](CN(C)C(=O)Nc2ccc(F)cc2)OCCCC[C@H](C)Oc2ccc(NC(=O)C3CCCCCC3)cc2C1=O`, the IC50 was > 35 µM (inactive).

Regarding `C[C@H](CO)N1C[C@H](C)[C@H](CN(C)C(=O)Nc2cccc(F)c2)OCCCC[C@H](C)Oc2ccc(NC(=O)C3CCCCC3)cc2C1=O`, the IC50 is > 35 µM (inactive). As to `Cc1ccc(NC(=O)N(C)C[C@@H]2OCCCC[C@H](C)Oc3ccc(NC(=O)C4CCCCC4)cc3C(=O)N([C@H](C)CO)C[C@@H]2C)cc1`, the IC50 is > 35 µM (inactive). `C[C@H]1CCCCO[C@@H](CN(C)C(=O)Nc2cccc3ccccc23)[C@@H](C)CN([C@@H](C)CO)C(=O)c2cc(NC(=O)C3CCCCC3)ccc2O1`: the IC50 was > 35 µM (inactive). Take `C[C@H](CO)N1C[C@H](C)[C@H](CN(C)C(=O)Nc2ccc3ccccc3c2)OCCCC[C@H](C)Oc2ccc(NC(=O)C3CCCCC3)cc2C1=O`: the IC50 is > 35 µM (inactive).

These data come from PubChem BioAssay AID743502 (Broad Institute, 2014).
